Patent publication US20110177964A1, “CHEMOSENSORY ARRAYS” (THE TRUSTEES OF PRINCETON UNIVERSITY, priority 2009, published 2011)
Changes are numbered by the printed parent chain.

Assays:
2211 (R4) receptor = molecular target: T1, 2211 (R4) receptor (Homo sapiens, UniProt Q15391, A193V/A252V/A98G/F243I/K54E); experiment: Yeast FUS1-lacZ β-galactosidase reporter assay, single receptor-single ligand calibration curves fitted by Bayesian nested sampling; assay type: cell-based, yeast expressing yeast expressing yeast expressing yeast expressing human receptor receptor receptor receptor; conditions: for ΔG (receptor-ligand binding free energy): 2211 (R4) expressed in yeast, average ± s.d. from posterior; for A (receptor efficacy): 2211 (R4), 1 = full agonist, 0 = full antagonist
T1 construct: expressed in transfected cells; host or cells: Saccharomyces yeast; strain CY10981 with FUS1-LacZ plasmid for β-galactosidase assays, strain CY10560 (FUS1-HIS3) for growth selection
T1 sequence (Q15391 with tags, fused parts or gaps K54E/A98G/A193V/F243I/A252V): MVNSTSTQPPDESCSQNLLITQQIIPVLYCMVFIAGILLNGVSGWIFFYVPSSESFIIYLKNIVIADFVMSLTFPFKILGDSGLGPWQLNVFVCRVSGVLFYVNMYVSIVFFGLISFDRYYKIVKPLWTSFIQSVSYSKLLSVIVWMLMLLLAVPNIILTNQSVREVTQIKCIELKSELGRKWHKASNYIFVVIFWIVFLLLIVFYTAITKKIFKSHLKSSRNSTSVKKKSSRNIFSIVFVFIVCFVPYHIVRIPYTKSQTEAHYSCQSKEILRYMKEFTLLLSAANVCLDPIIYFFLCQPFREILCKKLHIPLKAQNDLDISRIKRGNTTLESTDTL
Text: (§1) To assess receptor ligand interactions quantitatively in the chemosensor array, the receptors were functionally expressed in yeast. To do so, the yeast pheromone receptor was replaced with one of the sensor GPCRs in strains in which the pheromone response pathway was modified to respond to the heterologous receptor by inducing transcription of the E. coli lacZ gene. See the example section below. In this fashion, the extent of GPCR activation following ligand addition could be monitored as the level of β-galactosidase produced in the cell, which was measured using a fluorescence-based assay. See the example section below.
(§2) Receptor responses to binding of a single ligand. It was assumed that the observed signal in the receptor-bearing reporter strain is proportional to the probability that the receptor is bound by the ligand. This proportionality value, A, which is referred to as the receptor efficacy, can range from 1, for a full agonist, to 0, for a full antagonist, with intermediate values indicating partial agonist activity. In the simplest case of a single receptor interacting with a single ligand, the amount of activation of the reporter in the receptor bearing strain is given by:
(§3) where A is the receptor efficacy, ΔG is the receptor-ligand binding free energy, b is the background intensity, β=1/kBT (kB is the Boltzmann constant, and T is the temperature), and μ^l=kBT log n^l, which is the chemical potential, where n^l is the ligand concentration. In the example of fluorescing products, I can be measured by a fluorescent assay, but the intensity of any report may be utilized. […] In this example, the four receptors are R1: H-20, R2: K-3, and R3: L-3, R4: 2211. See the example section below for details regarding these receptors. […] For each curve, intensity normalized by the maximum intensity on the plate is plotted against log10 n (n is the ligand concentration in M). The error bars on each curve are from four biological replicates. The single receptor-single ligand binding curves can be used to calibrate the biophysical model (Eq. (1)) by inferring ΔG, A and b for each receptor-ligand combination and knowledge of μ^l. Specifically, Bayesian inference is applied. Referring to FIG. 4, the posterior probability P(ΔG, A, b, σ|{Ĩ}) is found by nested sampling (see below), where Ĩ=(l=1 . . . N) is the lth fluorescent and a is the noise parameter. […] This step provides calibration by returning the most likely value of ΔG, A and b for each receptor-ligand pair, as well as a value σ, which represents the noise in the response. The average value of each parameter obtained by marginalization of the posterior probability can be subsequently used for analysis of a mixture of compounds.
(§4) In this example, yeast cultures expressing each of the four mutant receptors (2211, H-20, K-3 and L-3) were grown overnight and diluted to OD600 of […] in flasks. Cultures were then grown to an OD600 of 0.1-0.2 and 80 μl of culture was aliquotted into deep-well 384 well plates along with 20 μL of ligand. Cultures in the 384 well plates were incubated with vigorous mixing for 4 hours (H-20, K-3, L-3) or overnight (2211). 50 μL of each sample was transferred to a black 384 well plate containing 25 μL fluorescein/lysis solution (as described in Chambers J, et al.). Fluorescence was read on a PerkinElmer fluorescent plate reader.

H-20 (R1) receptor = molecular target: T2, H-20 (R1) receptor (Homo sapiens, UniProt Q15391, A193V/A252V/A98G/F243I/I251T/K54E/R253K); experiment: as above; assay type: cell-based; conditions: for ΔG (receptor-ligand binding free energy): H-20 (R1) expressed in yeast, average ± s.d. from posterior; for A (receptor efficacy): H-20 (R1), 1 = full agonist, 0 = full antagonist
T2 construct: expressed in transfected cells; host or cells: Saccharomyces yeast; strain CY10981 with FUS1-LacZ plasmid for β-galactosidase assays, strain CY10560 (FUS1-HIS3) for growth selection
T2 sequence (Q15391 with tags, fused parts or gaps K54E/A98G/A193V/F243I/I251T/A252V/R253K): T1 sequence (Q15391 with tags, fused parts or gaps K54E/A98G/A193V/F243I/A252V) with I251T, R253K
Text: as §1, §2, §3, §4

K-3 (R2) receptor = molecular target: T3, K-3 (R2) receptor (Homo sapiens, UniProt Q15391, A193V/A252V/A98G/E278G/F243I/K54E); experiment: as above; assay type: cell-based; conditions: for ΔG (receptor-ligand binding free energy): K-3 (R2) expressed in yeast, average ± s.d. from posterior; for A (receptor efficacy): K-3 (R2), 1 = full agonist, 0 = full antagonist
T3 construct: expressed in transfected cells; host or cells: Saccharomyces yeast; strain CY10981 with FUS1-LacZ plasmid for β-galactosidase assays, strain CY10560 (FUS1-HIS3) for growth selection
T3 sequence (Q15391 with tags, fused parts or gaps K54E/A98G/A193V/F243I/A252V/E278G): T1 sequence (Q15391 with tags, fused parts or gaps K54E/A98G/A193V/F243I/A252V) with E278G
Text: as §1, §2, §3, §4

L-3 (R3) receptor = molecular target: T4, L-3 (R3) receptor (Homo sapiens, UniProt Q15391, A193V/A252V/A285S/A98G/F243I/K54E/L281V/L282F); experiment: as above; assay type: cell-based; conditions: for ΔG (receptor-ligand binding free energy): L-3 (R3) expressed in yeast, average ± s.d. from posterior; for A (receptor efficacy): L-3 (R3), 1 = full agonist, 0 = full antagonist
T4 construct: expressed in transfected cells; host or cells: Saccharomyces yeast; strain CY10981 with FUS1-LacZ plasmid for β-galactosidase assays
T4 sequence (Q15391 with tags, fused parts or gaps K54E/A98G/A193V/F243I/A252V/L281V/L282F/A285S): T1 sequence (Q15391 with tags, fused parts or gaps K54E/A98G/A193V/F243I/A252V) with L281V, L282F, A285S
Text: as §1, §2, §3, §4

2211 receptor = molecular target: T5, 2211 receptor (Homo sapiens, UniProt Q15391, A193V/A252V/A98G/F243I/K54E); experiment: Yeast growth plate assay (FUS1-HIS3 reporter) on selective media containing ligand; assay type: cell-based; conditions: 2211 (parent) receptor, selective plates with ligand
T5 construct: expressed in transfected cells; host or cells: Saccharomyces yeast; strain CY10981 with FUS1-LacZ plasmid for β-galactosidase assays, strain CY10560 (FUS1-HIS3) for growth selection
T5 sequence (Q15391 with tags, fused parts or gaps K54E/A98G/A193V/F243I/A252V): T1 sequence (Q15391 with tags, fused parts or gaps K54E/A98G/A193V/F243I/A252V)
Text: Mutagenesis and selection of sensitized receptor mutants: The entire UDPG receptor gene was mutagenized via errorprone mutagenesis to an estimated frequency of −2-5 mutations/kb following the Mutazyme protocol. […] A total of (1-2)×10^5 colonies were screened by replica plating to SC-His medium (Kaiser, C., Michaelis, S, and Mitchell, A. (1994) Methods in Yeast Genetics: A Cold Spring Harbor Laboratory Course Manual. Cold Spring Harbor Laboratory Press, Cold Spring Harbor, N.Y., which is incorporated herein by reference as if fully set forth) with or without ligand. Yeast growth media was supplemented by 1 mM 3AT, a competitive inhibitor of the HIS3 reporter gene product, which sets the threshold for reporter gene activation.
Cells were transformed with a plasmid library carrying the randomly mutated human UDPG receptor gene.
The 20 receptors isolated in this primary screen were subsequently retested for growth in the presence of lower concentrations of each ligand, to ascertain whether the receptor had significant changes in ligand preference. […] To determine whether the receptors that lacked appreciable changes in ligand specificity were indeed mutants and to verify the complexity of the mutant library, the DNA encoding each receptor was sequenced.

K-3 mutant receptor = molecular target: T6, K-3 mutant receptor (Homo sapiens, UniProt Q15391, A193V/A252V/A98G/E278G/F243I/K54E); experiment: as above; assay type: cell-based; conditions: K-3 mutant relative to its parent H-20
T6 construct: expressed in transfected cells; host or cells: Saccharomyces yeast; strain CY10981 with FUS1-LacZ plasmid for β-galactosidase assays, strain CY10560 (FUS1-HIS3) for growth selection
T6 sequence (Q15391 with tags, fused parts or gaps K54E/A98G/A193V/F243I/A252V/E278G): T1 sequence (Q15391 with tags, fused parts or gaps K54E/A98G/A193V/F243I/A252V) with E278G
Text: The ‘HIAR’ motif in transmembrane domain 6 was targeted. […] Libraries containing the randomized HIAR motif were constructed in vivo by cotransforming strain CY10560 cells with three DNA fragments: a 2211 receptor plasmid cut to remove the HIAR domain and a pair of PCR products synthesized with oligonucleotides randomized over the HIAR region and 50 and 30 extensions overlapping both sides of the gap in the plasmid. […] The 20 receptors isolated in this primary screen were subsequently retested for growth in the presence of lower concentrations of each ligand, to ascertain whether the receptor had significant changes in ligand preference. […] To determine whether the receptors that lacked appreciable changes in ligand specificity were indeed mutants and to verify the complexity of the mutant library, the DNA encoding each receptor was sequenced.
H-20 was selected as the template for mutagenesis of three additional motifs, ‘AxxFY’ and ‘NMY’ in TM3 and ‘KExT’ in TM7. These mutants were tested in the same manner as the HIAR mutants, focusing only on mutants with clear changes in relative growth on one or more ligands.

Row | SMILES | ΔG (receptor-ligand binding free energy) (2211 (R4) receptor) [kJ/mol] | A (receptor efficacy) (2211 (R4) receptor) | ΔG (receptor-ligand binding free energy) (H-20 (R1) receptor) [kJ/mol] | A (receptor efficacy) (H-20 (R1) receptor) | ΔG (receptor-ligand binding free energy) (K-3 (R2) receptor) [kJ/mol] | A (receptor efficacy) (K-3 (R2) receptor) | ΔG (receptor-ligand binding free energy) (L-3 (R3) receptor) [kJ/mol] | A (receptor efficacy) (L-3 (R3) receptor) | receptor response to ligand (yeast growth) (2211 receptor) | agonist/antagonist character (2211 (R4) receptor; 2211, small A, large negative ΔG) | agonist/antagonist character (H-20 (R1) receptor; H-20, small A, large negative ΔG) | agonist/antagonist character (K-3 (R2) receptor; K-3, small A, large negative ΔG) | agonist/antagonist character (L-3 (R3) receptor; L-3, small A, large negative ΔG) | yeast growth in response to ligand (K-3 mutant receptor)
1 | CC(=O)N[C@H]1[C@@H](OP(=O)(O)OP(=O)(O)OC[C@H]2O[C@@H](n3ccc(=O)[nH]c3=O)[C@H](O)[C@@H]2O)O[C@H](CO)[C@@H](O)[C@@H]1O [UDP-GlcNAc, UDP-N-acetylglucosamine] | -33.5 ± 0.38 | .89 ± .04 | -25.8 ± 0.25 | .51 ± .01 | -22.4 ± 0.25 | .55 ± .01 | -23.4 ± 0.25 | .43 ± .01 | responds |  |  |  |  | 
2 | Cc1cn([C@H]2C[C@H](O)[C@@H](COP(=O)(O)OP(=O)(O)O[C@H]3O[C@H](CO)[C@@H](O)[C@H](O)[C@H]3O)O2)c(=O)[nH]c1=O [dTDP-glucose] |  |  |  |  |  |  |  |  | do not activate |  |  |  |  | 
3 | CC(=O)N[C@H]1[C@@H](OP(=O)(O)OP(=O)(O)OC[C@H]2O[C@@H](n3ccc(=O)[nH]c3=O)[C@H](O)[C@@H]2O)O[C@H](CO)[C@H](O)[C@@H]1O [UDP-GalNAc, UDP-N-acetylgaltactosamine] |  |  |  |  |  |  |  |  | responds |  |  |  |  | 
4 | O=c1ccn([C@@H]2O[C@H](COP(=O)(O)OP(=O)(O)O)[C@@H](O)[C@H]2O)c(=O)[nH]1 [UDP, uridine diphosphate] | -43.1 ± 1.3 | .010 ± .009 | -31 ± 0.21 | .008 ± .009 | -34.3 ± 0.84 | .18 ± .01 | -31 ± 0.42 | .02 ± .02 | do not activate | antagonist | antagonist | antagonist | antagonist | grew
